Patent publication US7579373B2, “Targeted bisplatinum polyamines as pro-drugs: selective release of platinum” (Virginia Commonwealth University, priority 2002, dated 2009)

Columns and labels:
41M = experiment: SRB growth inhibition assay, 41M; assay type: cell-based, human; details: 96 h exposure
Experimental: (§1) Cell culture. A2780, A2780/CDDP, CH1, CH1/CDDP, 41M and 41M/CDDP cell lines were used in this study and maintained according to published procedures. (8,9).
(§2) Growth inhibition assay. The Sulforhodamine B (SRB) assay was used to determine growth inhibition potency of platinum drugs (10). The cells were seeded in 96-well microtitre plates at 3-8×10^3 cells/well in 160 μL growth medium and allowed to attach overnight. Platinum agents were then added after serial dilution in quadruplicate wells and exposed to cells for 2 or 96 hours. After the 2 hours drug incubations were complete, plates were washed free of drug with phosphate-buffered saline (PBS) and then refed with normal growth medium for a further 94 hours. Quantitation of cell growth in treated and control wells was then assessed using 0.4% SRB dissolved in 1% acetic acid. IC50 values were determined graphically.
(§3) Of special interest is the remarkably low value for 4 (Fmoc) in A2780 cells.

L1210/DDP [1] = experiment: Cellular accumulation in L1210/DDP cells; assay type: cell-based, murine; details: 2 hours of exposure; (±SE), 3 experiments of 2 determinations
Experimental: (§4) Cellular accumulation. The cellular accumulation assays followed published procedures (7). Briefly, cells were resuspended at 10^7/mL in media supplemented with […]. Platinum complexes were added, and samples were incubated at 37° C. in 5% CO2. At 0 and 2 hours aliquots were removed for determination of cell concentrations and for measurement of platinum content. For the latter, aliquots were washed three times in cold phosphate buffered saline, resuspended in 1% Triton-X in water, and sonicated. Platinum content was measured by flameless atomic absorption spectroscopy.
(§5) The cellular accumulation of the blocked Pt compound 2 was also investigated. […] Based solely on charge considerations the BOC-spermidine with a charge of 2+ should have cellular uptake similar to 1,1/t,t (n=6). The enhanced uptake could be explained by some hydrolysis in media or plasma producing small amounts of the protonated 1,1/t,t-spermidine. Considering the potency of polynuclear-polyamine compounds, a small percentage of hydrolysis could have a significant impact on in vivo activity.

L1210/DDP [2] = experiment: Growth inhibition in L1210/DDP cells; assay type: cell-based, murine
A2780 = experiment: SRB growth inhibition assay, A2780; assay type: cell-based, human; details: 96 h exposure
Experimental: as §1, §2, §3

[3] = pKa of the N4 site by pH titration monitored by 1H NMR; assay type: physicochemical
Experimental: pH measurements were taken on a Corning 340 pH meter with combined glass electrode. pD values in deuterated solutions were obtained by addition of 0.4 units to the meter reading. Extinction coefficients were determined with a Jasco V-550 UV/VIS spectrophotometer using 1 cm cuvettes.
In order to find the optimal conditions for the synthetic procedure, the pKa of the N4 site of the unprotected Pt spermidine complex 1 was determined prior to the protection reactions (6). A pH titration was carried out and monitored by ^1H NMR spectroscopy (11 and 12). […] The increased acidity is most likely a consequence of the electron withdrawing effect of the coordinated platinum centers.

A2780/CDDP = experiment: SRB growth inhibition assay, A2780/CDDP; assay type: cell-based, human; details: 96 h exposure
Experimental: as §1
as §2, with “graphically. […]” for “graphically.”

CH1/CDDP = experiment: SRB growth inhibition assay, CH1/CDDP; assay type: cell-based, human
Experimental: as §1
as §2, with “graphically. […]” for “graphically.”

L1210/0 [4] = experiment: Growth inhibition in L1210/0 cells; assay type: cell-based, murine; details: 2 hours of exposure; mean (±SE), 3 experiments of 2 determinations
Excerpt: To examine the pro-drug potential in a biological setting, a comparison of the pharmacological properties of the blocked polyamine compounds in L1210 murine leukemia cells was undertaken.

CH1 = experiment: SRB growth inhibition assay, CH1; assay type: cell-based, human; details: 96 h exposure
Experimental: as §1, §2, §3

L1210/0 [5] = experiment: Cellular accumulation in L1210/0 cells; assay type: cell-based, murine; details: 2 hours of exposure; (±SE), 3 experiments of 2 determinations
Experimental: as §4, §5

N.N.N.N.NCCCC[NH2+]CCCN.[Cl-].[Cl-].[Cl-].[Cl][Pt+].[Cl][Pt+] [Compound 1, [{trans-Pt(NH3)2Cl}2-μ-spermidine-N^1,N^8]Cl3]
IC50 (41M): < 250 nM
Accumulation L1210/DDP (L1210/DDP [1]): 20 (2.1) attamol Pt complex/cell
IC50 (L1210/DDP [2]; 2 hours of exposure, mean (±SE), 3 experiments of 2 determinations): 260 nM
RF, resistance factor (L1210/DDP [2]; IC50 L1210/DDP / IC50 L1210/0, 2 hours of exposure): 0.35
IC50 (A2780): < 250 nM
pKa of the N4 site [3]: 9.24±0.05
IC50 (A2780/CDDP): < 250 nM
IC50 (CH1/CDDP; 96 h exposure): 350 nM
RF CH1/CDDP (CH1/CDDP; IC50 resistant/IC50 parent line, 96 h): 0.8
IC50 (L1210/0 [4]): 750 nM
IC50 (CH1): 430 nM
Accumulation L1210/0 (L1210/0 [5]): 17 (3.4) attamol Pt complex/cell
